From PMC9056166 (RSC Advances, 2020) come the findings set out here.

Entries after “also recorded” stand apart in the source; their conditions may differ. Marks after values point to notes of the source that are not given here.

For one test, the target named is PDE5 (Homo sapiens, UniProt O76074). In words: Phosphodiesterase 5 enzyme activity assay. The format is biochemical. The settings on record: for inhibition at 10 µM: read-out: PDE5 activity, decrease (↓, inhibition); for effect on PDE5 activity (in words): 10 μM; for PDE5 activity, increase (↑, enhancement): 10 μM compound.
The format of test [1] is in vivo, White New Zealand rabbits. The settings on record: normotensive rabbits; for MABP: mean arterial blood pressure, i.v. (jugular vein), means ± SE, n = 4.
Another test addresses T1, ovine COX-1 (Ovis aries, UniProt P05979).
T1 sequence (P05979 25-600): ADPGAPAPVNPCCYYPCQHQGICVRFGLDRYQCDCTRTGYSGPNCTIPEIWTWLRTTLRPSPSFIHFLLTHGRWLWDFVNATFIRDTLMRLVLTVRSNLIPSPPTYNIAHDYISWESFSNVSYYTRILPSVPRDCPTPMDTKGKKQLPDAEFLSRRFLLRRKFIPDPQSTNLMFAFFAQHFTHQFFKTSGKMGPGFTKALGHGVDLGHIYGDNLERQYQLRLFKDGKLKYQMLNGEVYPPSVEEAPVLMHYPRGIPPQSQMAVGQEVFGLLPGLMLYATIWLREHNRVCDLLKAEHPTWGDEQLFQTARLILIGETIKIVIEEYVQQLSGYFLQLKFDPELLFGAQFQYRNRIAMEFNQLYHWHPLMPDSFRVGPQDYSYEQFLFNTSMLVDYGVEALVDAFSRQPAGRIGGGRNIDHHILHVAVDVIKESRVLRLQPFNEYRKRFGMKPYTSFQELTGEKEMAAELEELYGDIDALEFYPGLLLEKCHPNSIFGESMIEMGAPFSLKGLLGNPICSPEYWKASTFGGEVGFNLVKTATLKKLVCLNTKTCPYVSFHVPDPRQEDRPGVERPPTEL
The test is described as follows: In vitro COX-1 inhibition, enzyme immunoassay. Type of test: biochemical.

The target in the next test is T2, human recombinant COX-2 (Homo sapiens, UniProt P35354).
T2 sequence (P35354 18-604): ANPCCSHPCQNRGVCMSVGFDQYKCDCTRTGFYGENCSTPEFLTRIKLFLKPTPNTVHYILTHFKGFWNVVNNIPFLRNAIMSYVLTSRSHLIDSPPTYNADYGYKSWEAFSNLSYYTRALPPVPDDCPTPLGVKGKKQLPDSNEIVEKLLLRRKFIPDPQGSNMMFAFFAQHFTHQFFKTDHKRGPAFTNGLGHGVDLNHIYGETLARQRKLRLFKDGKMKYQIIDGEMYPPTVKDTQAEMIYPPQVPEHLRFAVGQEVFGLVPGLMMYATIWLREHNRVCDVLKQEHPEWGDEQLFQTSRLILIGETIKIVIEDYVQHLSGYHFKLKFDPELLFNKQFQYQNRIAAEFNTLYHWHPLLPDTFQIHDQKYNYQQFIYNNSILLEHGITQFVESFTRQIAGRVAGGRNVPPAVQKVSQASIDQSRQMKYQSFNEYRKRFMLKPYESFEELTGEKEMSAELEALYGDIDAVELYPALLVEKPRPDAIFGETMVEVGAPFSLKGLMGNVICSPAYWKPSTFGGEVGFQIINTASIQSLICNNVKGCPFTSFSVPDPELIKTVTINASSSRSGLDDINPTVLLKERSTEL
In words: In vitro COX-2 inhibition, enzyme immunoassay. The format is biochemical. The settings on record: for COX-2 S.I. (COX-1/COX-2): IC50 (COX-1)/IC50 (COX-2).

In the case of `CCCc1nn(C)c2c(=O)[nH]c(-c3cc(S(=O)(=O)N4CCN(C)CC4)ccc3OCC)nc12` [Sildenafil, sildenafil, reference compound], the inhibition at 10 µM on PDE5 was 100%. The compound also returned an MABP in test [1] of 72.50 ± 2.9.

Turning to `CCOC(=O)CCC(=O)Nc1nccs1` [Compound 11, ethyl 4-oxo-4-(thiazol-2-ylamino)butanoate], at PDE5, the “effect on PDE5 activity (in words)” value is reported as “very low activity” and the “PDE5 activity, increase (↑, enhancement)” value was determined as 3.5%. Besides, in test [1], the MABP is given as 85^&, the “MABP compared with control (in words)” value was “insignificantly lower than the control values” and the “MABP compared with sildenafil (in words)” value is “significantly higher than the sildenafil values”. On ovine COX-1, this compound returned an IC50 of 1700 nM. Also, on human recombinant COX-2, the IC50 came to 210 nM and the “COX-2 S.I. (COX-1/COX-2)” value is recorded as 8.1.

Take `CC(=O)c1c(C)[nH]c(C(=O)Nc2nccs2)c1C` [Compound 5b, 4-Acetyl-3,5-dimethyl-N-(thiazol-2-yl)-1H-pyrrole-2-carboxamide]: at PDE5, the “effect on PDE5 activity (in words)” value is “very low activity” and the “PDE5 activity, increase (↑, enhancement)” value is 15%. Further, in test [1], the MABP is 98 and the “MABP compared with control (in words)” value is reported as “higher than the control values in a nonsignificant manner”. In addition, the IC50 against ovine COX-1 is 1300 nM. At human recombinant COX-2, the IC50 was 240 nM and the “COX-2 S.I. (COX-1/COX-2)” value was 5.4.

As for `CC(=O)C(C(C)=O)C(=O)Nc1nccs1` [Compound 17, 2-acetyl-3-oxo-N-(thiazol-2-yl)butanamide], at PDE5, the “effect on PDE5 activity (in words)” value was “increased the PDE5 activity” and the “PDE5 activity, increase (↑, enhancement)” value stood at 371%. In test [1], the MABP is given as 87^&, the “MABP compared with control (in words)” value is “insignificantly lower than the control values” and the “MABP compared with sildenafil (in words)” value is “significantly higher than the sildenafil values”. On ovine COX-1, this compound showed an IC50 of 1400 nM. Besides, at human recombinant COX-2, the IC50 was 90 nM and the “COX-2 S.I. (COX-1/COX-2)” value turned out to be 15.56.

As to `C/C(=C/C(=O)Nc1nccs1)Nc1ccccc1` [Compound 23a, (Z)-3-(phenylamino)-N-(thiazol-2-yl)but-2-enamide], the inhibition at 10 µM on PDE5 turned out to be 100%. Besides, in test [1], the MABP is 108 and the “MABP compared with control (in words)” value is reported as “without causing hypotension; also recorded: higher than the control values in a nonsignificant manner; also recorded: without a notable decrease in MABP”. Besides, at ovine COX-1, the IC50 was found to be 6300 nM. Besides, at human recombinant COX-2, the IC50 came to 710 nM and the “COX-2 S.I. (COX-1/COX-2)” value was found to be 8.87.

For the compound `Cc1cc(O)n(-c2nccs2)n1` [Compound 7, 3-methyl-1-(thiazol-2-yl)-1H-pyrazol-5-ol], the inhibition at 10 µM at PDE5 was determined as 75%. In addition, in test [1], the MABP was 81^#, the “MABP compared with control (in words)” value is listed as “significantly lower than that of the control” and the “MABP compared with sildenafil (in words)” value was “insignificantly higher than the sildenafil one”. The compound further displayed an IC50 at ovine COX-1 of 6340 nM. For the same compound, at human recombinant COX-2, the IC50 worked out at 630 nM and the “COX-2 S.I. (COX-1/COX-2)” value is 10.06.

Take `CCOC(=O)c1c(C)[nH]c(C(=O)Nc2nccs2)c1C` [Compound 5a, Ethyl 2,4-dimethyl-5-(thiazol-2-ylcarbamoyl)-1H-pyrrole-3-carboxylate]: at PDE5, the “effect on PDE5 activity (in words)” value is listed as “increased the PDE5 activity” and the “PDE5 activity, increase (↑, enhancement)” value amounted to 222%. In addition, in test [1], the MABP is reported as 108^## and the “MABP compared with control (in words)” value was “significantly higher”. This compound yielded an IC50 on ovine COX-1 of 1600 nM. Moreover, at human recombinant COX-2, the IC50 turned out to be 100 nM and the “COX-2 S.I. (COX-1/COX-2)” value worked out at 16.

For `COc1ccc(N/C(C)=C\C(=O)Nc2nccs2)cc1` [Compound 23b, (Z)-3-((4-methoxyphenyl)amino)-N-(thiazol-2-yl)but-2-en-amide], on PDE5, the “effect on PDE5 activity (in words)” value is reported as “increased the PDE5 activity; also recorded: very low activity”; the “PDE5 activity, increase (↑, enhancement)” value is recorded as 15%; the inhibition at 10 µM turned out to be 100%. In test [1], the MABP was 110^## and the “MABP compared with control (in words)” value was “significantly higher; also recorded: without a notable decrease in MABP”. Also, it took 5740 nM to reach half-maximal inhibition on ovine COX-1 (IC50). For the same compound, at human recombinant COX-2, the IC50 was 560 nM and the “COX-2 S.I. (COX-1/COX-2)” value was determined as 10.25.

Regarding `C/C(=C/C(=O)Nc1nccs1)Nc1ccc(Cl)cc1` [Compound 23c, (Z)-3-((4-chlorophenyl)amino)-N-(thiazol-2-yl)but-2-enamide], the inhibition at 10 µM on PDE5 was determined as 100%. Moreover, in test [1], the MABP is given as 100 and the “MABP compared with control (in words)” value was “without causing hypotension; also recorded: higher than the control values in a nonsignificant manner”. In addition, on ovine COX-1, the IC50 turned out to be 6330 nM. In addition, at human recombinant COX-2, the IC50 came out at 610 nM and the “COX-2 S.I. (COX-1/COX-2)” value came out at 10.38.

For `CC(=O)C(=NO)C(=O)Nc1nccs1` [Compound 2, 2-(hydroxyimino)-3-oxo-N-(thiazol-2-yl)butanamide], the inhibition at 10 µM on PDE5 was 53%. For the same compound, in test [1], the MABP was 115^## and the “MABP compared with control (in words)” value is on record as “significantly higher”. The same compound registered an IC50 against ovine COX-1 of 1500 nM. Besides, on human recombinant COX-2, the IC50 amounted to 110 nM and the “COX-2 S.I. (COX-1/COX-2)” value is 13.64.
